The subject of experiment [1] is 11-cis retinol biosynthesis. In words: In vitro 11-cis retinol production by bovine RPE membranes. Type of experiment: biochemical. The note with it: 10 μM HPR, p<0.05. Here is the method:
We examined the effects on HPR on enzymes or proteins of the visual cycle using in vitro biochemical assays. Specifically, the utilization of exogenous all-trans retinol by membranes prepared from bovine RPE was studied. […] Steady-state levels of HPR in the RPE (determined from mice which have been given 20 mg/kg HPR, i.p., daily for 28 days) range from 5-10 μM. With this in mind, we examined the effects of 10 μM HPR on production of all-trans retinyl esters and 11-cis retinol in assays similar to those described above. […] In the presence of endogenous retinoids, utilization of exogenous all-trans retinol is extremely low and 11-cis retinol is produced solely from the endogenous all-trans retinyl esters. […] Thus, the retinoic acids appear to affect at least two targets in the visual cycle. We have determined that HPR-induced reduction of 11-cis retinol biosynthesis occurs via LRAT inhibition and reduction in all-trans retinyl ester levels. In this situation, the isomerase enzyme is starved for substrate and 11-cis retinol production declines.

The target of the next experiment is T1, CRALBP (Homo sapiens, UniProt P12271).
T1 construct: made in house
T1 sequence (P12271 whole entry, species assumed): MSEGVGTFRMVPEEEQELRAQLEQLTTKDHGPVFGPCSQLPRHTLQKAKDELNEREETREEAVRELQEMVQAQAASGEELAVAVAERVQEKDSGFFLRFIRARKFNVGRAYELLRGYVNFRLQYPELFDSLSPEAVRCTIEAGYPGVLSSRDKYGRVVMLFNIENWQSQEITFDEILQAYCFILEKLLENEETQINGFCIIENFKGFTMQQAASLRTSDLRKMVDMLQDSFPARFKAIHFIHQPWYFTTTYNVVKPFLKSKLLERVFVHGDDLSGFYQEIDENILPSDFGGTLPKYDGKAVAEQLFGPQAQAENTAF
In words: Size exclusion chromatography study of binding to CRALBP. The note with it: 4 μM apo-CRALBP, 8 μM ligand. Here is the method:
Apo-CRALBP at 4 μM was incubated with 8 μM of 11cRAL, atRAL or HPR in PBS at room temperature for 1 hour. In control experiment, equivalent volume of DMSO was added to the CRALBP solution. 50 μl of each sample mixture was analyzed by BioRad Bio-Sil SEC125 Gel Filtration Column (300×7.8 mm).

In another experiment the target is T2, LRAT (Homo sapiens, UniProt O95237).
T2 construct: host or cells: membranes from liver and small intestine
T2 sequence (O95237 1-230): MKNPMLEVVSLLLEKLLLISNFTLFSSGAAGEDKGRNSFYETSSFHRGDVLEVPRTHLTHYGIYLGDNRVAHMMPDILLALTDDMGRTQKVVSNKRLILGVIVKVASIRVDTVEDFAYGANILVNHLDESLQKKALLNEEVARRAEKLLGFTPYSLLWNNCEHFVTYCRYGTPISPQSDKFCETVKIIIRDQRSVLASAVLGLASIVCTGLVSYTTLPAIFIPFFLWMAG
The note with it: cited from earlier work.

`CC1=C(/C=C/C(C)=C/C=C/C(C)=C/C(=O)Nc2ccc(O)cc2)C(C)(C)CCC1` [HPR, N-(4-hydroxyphenyl)retinamide]: the “effect on 11-cis retinol biosynthesis” value in experiment [1] is recorded as “statistically significant inhibition”. The “ligand bound to CRALBP (monomer elution peak absorbance)” value on CRALBP is listed as “only small amount of HPR is bound to CRALBP”. On LRAT, the “LRAT activity in membranes prepared from liver and small intestine” value is on record as “marked inhibition”.

The record behind these values is patent US8410168B2, “Methods and compositions for treating ophthalmic conditions with retinyl derivatives” (Acucela, Inc., priority 2004, dated 2013).
